# Reference: a melting point compilation (Tetko et al.; mined from patent text by program, amines drawn as free bases though some values may be those of a salt)
row,Structure (SMILES),melting point [°C]
1,CCC(=O)C1=C(O)CC(c2ccc(Oc3ccc(S(C)(=O)=O)cc3)cc2)CC1=O (stereo not drawn),157 to 158
2,CCOC(=O)C1=C(C)NC(=O)N(C(=O)OCC)C1c1ccccc1[N+](=O)[O-] (stereo not drawn),150 to 152
3,CN(c1ccc(C2CCCCC2)cc1)c1nc(=O)c2cccnc2s1,192 to 195
4,CON=Cc1ccc2c(c1)ncn2-c1cccc(-c2ccoc2)c1,147 to 148
5,Cc1c([N+](=O)[O-])ccnc1C(=O)NCCNC(=O)OC(C)(C)C,133 to 134
6,CC1(C)COS(=O)Oc2ccc(OS(C)(=O)=O)cc21 (stereo not drawn),96 to 98
7,CCOC(=O)CCN1CCN(CC2CN(c3ccc(C(=N)NC(=O)c4ccccc4)cc3)C(=O)O2)CC1 (stereo not drawn),163 to 164
8,Cc1ccc2c(c1)[C@@]1(C)Cc3ccccc3[C@@]1(C)N2 (relative stereo),208 to 212
9,CC12CCC(=O)C=C1CCC1C2=CCC2(C)C(=O)CCC12 (stereo not drawn),196 to 202
10,COC(=C[N+](=O)[O-])NCc1cccnc1,129 to 130
11,CCCOc1ccccc1-c1nc2cc([N+](=O)[O-])ccc2c(=O)[nH]1,138
12,COc1cc(-c2nc(-c3ccc(N(C)C)cc3)c(C)[nH]2)ccc1OC(C)=O,253 to 256
13,O=C(O)c1cc(-c2ccccc2)cc2c(-c3ccccc3)c([N+](=O)[O-])oc12,207 to 209
14,COc1cc(C)c(Cl)c2c(=O)oc3c(c12)C(=O)c1cccc(O)c1C3=O,294 to 296
15,COC(c1ccc(Cl)cc1)(c1ccc(NC(=O)c2cccc(I)c2C(=O)NC(C)C)c(C)c1)C(F)(F)F (stereo not drawn),212 to 214
16,COc1cc(OC)c2c(c1)Oc1cc(Br)ccc1CC2=O,95 to 103
17,C=C1Cc2cc3c(cc2C(c2ccc(N(C(C)=O)C(C)=O)cc2)=NN1C(C)=O)OCO3,240 to 245
18,CCCc1nnc2c(NC3CCCC3)nc3ccccc3n12,186 to 188
19,c1ccc2c(N3CCCC3)nc(N3CCCC3)nc2c1,127 to 129
20,COc1ccc(-c2cnc3cc(OC)c(OC)cc3c2)cn1,170 to 172
21,CCCCc1nn(-c2ccc(C(F)(F)F)cn2)cc1CCC(=O)OCC,63 to 64
22,COc1ccc2cc(NC(C)=O)cc(C)c2n1,193 to 196
23,O=C(O)c1c(-c2ccccc2)c2cc(OCc3ccccc3)ccc2n1Cc1cc2c(cc1Cl)OCO2,213 to 214
24,c1cn(CC2CCCCC2)cn1,25 to 30
25,COc1ccc(CN(C)CCOc2ccc(NC(=O)c3cccc4c(=O)cc(-c5ccccc5)[nH]c34)cc2)cc1OC,175

row,Structure (SMILES),melting point [°C]
1,CCCCc1ncc(/C=C(\Cc2cccs2)C(=O)O)n1Cc1cc(Cl)c(C(=O)O)cc1Cl,145
2,O=c1nc(Nc2ccc(Br)cc2)sc2ncccc12,274 to 275
3,CCOC(=O)C(=O)Nc1nc(CN2CCN(C(c3ccccc3)c3ccccc3)CC2)cs1,125 to 128
4,CON(C)C(=O)[C@@H](Cc1ccc(OCc2ccccc2)cc1)NC(=O)OC(C)(C)C,107 to 109
5,COC(=O)[C@H]1C=C(c2ccc(Br)cc2)OC(=O)[C@H]1Cc1ccccc1,139 to 141
6,Cc1cccc(C)c1C=Nc1cc(Cl)c(N=CN(C)C)c(Cl)c1,123 to 124
7,Nc1nc2c(ncn2CCC(COC=O)COC=O)c(=O)[nH]1,195 to 198
8,CCc1c(C(C)C)nc(C(C)C)c(CO)c1-c1ccc(F)cc1,126 to 129
9,CCOc1cnc(N[N+](=O)[O-])[nH]c1=O,189 to 192
10,Cc1c(SCCN2CCOCC2)ccnc1CSc1nc2cc(C(=O)O)ccc2[nH]1,120 to 124
11,Cc1nc(-n2cc(C(O)c3ccccc3)nn2)sc1C(=O)NCc1ccccc1 (stereo not drawn),143 to 146
12,NS(=O)(=O)c1cccc(NC(=O)c2cnn3ccc(-c4ccc(C(F)(F)F)cc4)nc23)c1,318 to 320
13,CC(C)(C)OC(=O)N1CCC(Nc2nccc(-c3c(-c4ccc(F)cc4)nc4occn34)n2)CC1,175
14,CCCCCCCCCCCCCC(=O)O[C@H](CCCCCCCCCCC)CC(=O)NC(=O)[C@@H](N)CO,126 to 130
15,C=C(C)C(=O)NC(=O)NCc1ccccc1,96 to 98
16,Cc1c(F)cc(C(=O)O)cc1-c1ccc(C(=O)NCC(C)(C)C)cc1C(=O)Nc1nccs1,196 to 200
17,O=S1(=O)c2cccc3c(Cl)cc(Cl)c(c23)N1CCCN1CC=C(c2ccccc2)CC1,126
18,CCc1cccc(C(C)C)c1NC(=O)NCC1(c2ccccc2)CCCCC1,178 to 180
19,CCCCCCCCOc1cc(-c2cccc(Cl)c2)c(OCC(=O)O)c(-c2cccc(Cl)c2)c1,113 to 116
20,COC(=O)c1c(Cl)c(-c2cccc(C(F)(F)F)c2)nn1C,97 to 98
21,O=C(O)c1cn(-c2ccccc2)c2c(F)c(F)c(F)cc2c1=O,88 to 90
22,CC(C)CC(=O)Nc1cccc(-c2ccnc3c(-c4cccc(CN5CCOCC5)c4)cnn23)c1,170 to 173
23,O=c1c(Br)c(Br)cnn1Cc1ccccc1,95 to 96
24,CCOC(CN1C(=O)C(NC(=O)Nc2cccc(C)c2)CN(C(=O)C(C)(C)C)c2ccccc21)OCC (stereo not drawn),167 to 169
25,CC(=O)CCC(=S)N(CC(=O)O)C1Cc2ccccc2C1,120 to 122

row,Structure (SMILES),melting point [°C]
1,O=C(O)COc1cccc(CCCOC(c2ccccc2)c2ccccc2)c1,110 to 112
2,CC(C(=O)O)c1ccc2cc(OCC(=O)O)ccc2c1 (stereo not drawn),185 to 188
3,C=C1CSC2C(NC(=O)OC(C)(C)C)C(=O)N2C1C(=O)OC(c1ccccc1)c1ccccc1 (stereo not drawn),135 to 137
4,COC(=O)CCc1ccc(NC(=O)NNC=O)cc1,146 to 148
5,C=CC[C@H]1C[C@@](OS(C)(=O)=O)(C(=O)OC)C[C@@H](OC(=O)c2ccccc2)[C@@H]1OS(C)(=O)=O,154 to 155
6,O=C(NCC1CC1)C(c1ccccc1)c1ccccc1,130
7,C1CNCCN2CCOCCOCCN(CCN1)CCOCCOCC2,69
8,C(=Cc1ccc(OCCCCc2nnn[nH]2)cc1)c1ccncc1,158 to 159
9,CCN1CCCC(NC(=O)c2cc(C)on2)C1 (stereo not drawn),84 to 86
10,NS(=O)(=O)c1cc2c(s1)CCC(=O)C2,148 to 150
11,CCn1nc2c(N)nc3cnccc3c2c1CC(C)(C)C,> 260
12,O=C(NS(=O)(=O)c1cc(C(F)(F)F)ccc1Cl)c1cn2cc(C(F)(F)F)cnc2n1,211 to 212
13,CCOC(=O)C1(Cl)Oc2c(cc(C(=O)c3ccccc3F)c(OC)c2C)C1Cl (stereo not drawn),102
14,CCc1cccc(CC)c1NCC(=O)NC(=S)NNC,166
15,O=C(C=Cc1ccc(CN(CCO)C2CCCCC2)cc1)Nc1ccc(-c2ccc(Cl)cc2)cc1,178 to 179
16,COc1nc(C)cnc1N,75 to 76.5
17,CCOC(=O)C(O)=Cc1nccc(OCc2ccccc2)n1,124 to 126
18,CCCCNC(=O)C1CC(C)(C)NC(C)(C)C1=NO (stereo not drawn),58 to 60
19,COc1ccc(/C=C/C(=O)Nc2ccccc2C(=O)O)cc1OC1CCCC1,211 to 217
20,CCCCONc1ncn(-c2c(C)cccc2C)c(=O)n1,144 to 145
21,N#CC(c1ccccc1)(c1ccccc1)c1ccc([N+](=O)[O-])cn1,94 to 99
22,CS(=O)(=O)Nc1cc(Cl)c(C#N)cc1Sc1ccc(F)cc1F,159 to 162
23,Nc1ccccc1Nc1ccc(Nc2nccs2)cc1,184 to 186
24,NC(=O)c1cnn2cccc2c1NC1CCCCCC1,279
25,COc1cc2cc(C(N)=O)cnc2cc1F,231

row,Structure (SMILES),melting point [°C]
1,CCCCCCCCCCCC#Cc1ccc(C=CC(=O)O)cc1,156 to 157
2,Cc1ccc(OC2COc3ccc(OCc4ccc5ccccc5n4)cc3C2O)cn1 (stereo not drawn),134 to 136
3,COc1cc2c(cc1[N+](=O)[O-])NC(=O)CN(C(=O)C(F)(F)F)C2,204 to 205
4,O=[N+]([O-])c1ccc(OCc2ccccc2)c(CO)c1,81 to 83
5,O=C1C=C(c2ccc(O)cc2)C(=O)N1,158 to 162
6,CC(=O)N1CCc2c(sc(C)c2C(=O)CN2CCC(c3noc4cc(F)ccc34)CC2)C1,92 to 94
7,O=C(O)Cc1cccc(CCNC(=O)C2Cc3ccccc3N2S(=O)(=O)c2ccc(-c3ccccc3C(F)(F)F)cc2)c1 (stereo not drawn),78
8,CC(C)[Si]1(C(C)C)C([Si](C)(C)C)=C(c2ccccc2)C(c2ccccc2)=C1[Si](C)(C)C,107
9,COc1c(C)cc2c(c1C)Cc1c-2[nH]c2c(C)cc(C)cc12,210
10,CC1(C)CN=C2C(=O)c3cc(C#N)ccc3N2C1,178 to 184
11,CC(C)(Cc1cc2c(OCc3ccc4ccccc4n3)cccc2n1Cc1ccc(Cl)cc1)C(=O)O,158 to 160
12,CC(CS)C(=O)NC(CCCNC(=N)N)C(=O)O (stereo not drawn),100
13,CS(=O)(=O)c1ccc(-c2cc(C(=O)c3cccnc3)sc2N2CCOCC2)cc1,122
14,COC(=O)C(C(=O)OC)C(Cc1cc(Cl)ccc1N)c1ccc(OC)cc1 (stereo not drawn),114 to 116
15,CC(C)CCCC(C)C1CCC2C3CC=C4CC(OC(=O)C(C)(C)COP(=O)(O)OCCBr)CCC4(C)C3CCC12C (stereo not drawn),98
16,CCOC(=O)COc1cccc2c1CCc1sc(SCC(c3ccccc3)c3ccccc3)nc1-2,92 to 93
17,NCC1COc2cc(Cl)cc(-c3ccccc3F)c2N1 (stereo not drawn),95
18,N#Cc1ccc(-c2nc(N3C(=O)OCC34CC4)sc2F)cc1,222 to 224
19,CCc1ccc(C2CCCN2S(=O)(=O)c2ccc(Cl)cc2)cc1 (racemic),94
20,CCOC(=O)C1=C(COCc2nnn(CCNc3nc(N)n[nH]3)n2)NC(C)=C(C(=O)OC)C1c1cccc(Cl)c1Cl (stereo not drawn),85
21,O=C(O)C(Cl)=C(Cl)C(O)=NCCc1ccc([N+](=O)[O-])cc1,166
22,c1ccc(C(OC2CCN(CCCNc3ccc4ncnn4n3)CC2)c2ccccc2)cc1,136 to 138
23,O=C(O)C1=Cc2cc(Oc3ccccc3)ccc2OC1C(F)(F)F (stereo not drawn),185 to 186
